Patent US4797488A, “Psychotropic polycyclic imides” (American Home Products Corporation, priority 1987, dated 1989)
Where two headings read alike, the source gives them in different places.

Legend:
[1] = test system: conditioned avoidance responding; assay: Conditioned avoidance, shelf-jump response test; assay type: in vivo, male CD rats (Charles River); settings: ip, single dose, rat
From the text: (§1) The antipsychotic properties of the compounds of this invention were established by standard pharmacologically accepted procedures involving conditioned avoidance studies in which trained male CD rats (Charles River), 400-450 g. body weight are exposed to a fifteen second warning tone (conditioned stimulus) continued for an additional fifteen seconds accompanied by electric shock. The rat can avoid the electric shock by jumping to an exposed shelf (shelf-jump response). A response during the initial warning tone is considered an avoidance response, while a response during shock delivery is considered as escape response. The shelf-jump response test procedure follows that of Herman et al., Comm. in Psychopharm., 3, pp. 165-171 (1979). The compounds of this invention were tested at a single dose (40 mg./kg. i.p.) in this procedure and were rated relative to their inhibition of conditioned avoidance responding. A similar test procedure in which a lever press was substituted for a shelf-jump was used to establish the oral (p.o) activity of the test compounds. Orally active compounds were tested over a full dose range and the Avoidance Block activities reported as "AB50 's" (mg./kg.).

[2] = test system: conditioned avoidance responding; assay: Conditioned avoidance, discrete trial (lever press), oral; assay type: in vivo, rat; settings: for ED50: Rattus norvegicus, po, read-out: Conditioned avoidance, discrete trial AB50 (Avoidance Block); for Conditioned avoidance, discrete trial AB50 (Avoidance Block): p.o.
From the text: as §1

[3] = test system: apomorphine-induced stereotyped behavior and climbing; assay: Antagonism of apomorphine-induced stereotyped behavior and climbing; assay type: in vivo, CF-1 mice (Charles River); settings: mice; for ED50: Mus musculus; for ED50 / Apomorphine antagonism ED50, stereotypy / Apomorphine antagonism ED50, climbing: head: p.o. (text: i.p.), apomorphine 1 mg/kg s.c.; for Ratio of the ED50 for stereotyped behavior to the ED50 for climbing: apomorphine-induced stereotypy/climbing
D-2 dopamine receptor = molecular target: T1, D-2 dopamine receptor (Rattus norvegicus, UniProt P61169); assay: [3H]Spiroperidol binding inhibition, homogenized limbic brain tissue
T1 construct: from tissue; host or cells: limbic brain tissue
From the text: The results of this testing with compounds representative of the invention whose production is exemplified,infra, are as follows: […]

[4] = molecular target: T2, 5-HT1A serotonin receptor (Rattus norvegicus, UniProt P19327); assay: Inhibition of [3H] 8-OH DPAT binding; settings: for Ki / inhibition at 1 µM: 5-HT1A
T2 construct: 44: 1685-1696, 1985; from tissue
T2 sequence (P19327 1-422): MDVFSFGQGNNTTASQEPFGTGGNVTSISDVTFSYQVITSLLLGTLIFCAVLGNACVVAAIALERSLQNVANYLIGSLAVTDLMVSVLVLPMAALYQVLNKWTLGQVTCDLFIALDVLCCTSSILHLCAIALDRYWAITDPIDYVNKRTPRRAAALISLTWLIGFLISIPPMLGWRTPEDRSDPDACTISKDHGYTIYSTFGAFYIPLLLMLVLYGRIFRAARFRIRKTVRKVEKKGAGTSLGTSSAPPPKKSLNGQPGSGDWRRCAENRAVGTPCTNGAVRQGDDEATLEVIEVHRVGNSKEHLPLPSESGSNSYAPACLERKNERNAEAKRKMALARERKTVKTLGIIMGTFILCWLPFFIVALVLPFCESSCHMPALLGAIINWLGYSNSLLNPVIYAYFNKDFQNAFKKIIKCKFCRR
From the text: 8-OH DPAT (dipropylaminotetralin) from the 5-HT1A serotonin receptor by the procedure of Hall et al., J. Neurochem.

[5] = read-out: Apomorphine antagonism ED50, climbing
[6] = read-out: Apomorphine antagonism ED50, stereotypy

T1 sequence (P61169 whole entry): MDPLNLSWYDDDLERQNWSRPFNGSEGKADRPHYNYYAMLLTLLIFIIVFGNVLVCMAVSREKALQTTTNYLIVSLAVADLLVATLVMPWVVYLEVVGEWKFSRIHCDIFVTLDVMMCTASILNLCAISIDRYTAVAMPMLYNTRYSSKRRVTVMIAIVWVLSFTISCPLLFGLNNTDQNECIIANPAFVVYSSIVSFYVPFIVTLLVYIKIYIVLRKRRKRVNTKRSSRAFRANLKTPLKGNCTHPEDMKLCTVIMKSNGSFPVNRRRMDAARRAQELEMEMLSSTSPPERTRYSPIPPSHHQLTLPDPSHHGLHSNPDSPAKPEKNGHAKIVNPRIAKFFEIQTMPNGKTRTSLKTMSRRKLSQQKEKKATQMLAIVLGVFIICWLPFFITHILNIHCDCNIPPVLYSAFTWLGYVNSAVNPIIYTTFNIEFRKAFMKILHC

Row | SMILES | inhibition at 1 µM (D-2 dopamine receptor) [%] | Ki [4] [nM] | Ki (D-2 dopamine receptor) [nM] | inhibition at 1 µM [4] [%] | inhibition in vivo at 40 mg/kg [1] [%] | ED50 [2] [mg/kg] | ED50 [3, 5] [mg/kg] | Apomorphine antagonism ED50, stereotypy [3] | Conditioned avoidance, discrete trial AB50 (Avoidance Block) [2] | ED50 [3, 6] [mg/kg] | Apomorphine antagonism ED50, climbing [3] | Affinity for 5-HT1A serotonin receptor (in words) ([4]; [3H] 8-OH DPAT displacement) | Ratio of the ED50 for stereotyped behavior to the ED50 for climbing [3]
1 | O=C1C2CC(C(=O)N1CCCCN1CCN(c3ncccn3)CC1)C1CCCC21 (centres unmarked) [Example 1, Hexahydro-3-[4-[4-(2-pyrimidinyl)-1-piperazinyl]butyl]-1,5-methanocyclopent[d]azepine-2,4(1H,3H)-dione] | 54 | 3 |  |  | > 20 | 40.1 | 4.08 | inactive |  |  |  |  | 
2 | O=C1C2CC(C(=O)N1CCCCN1CCN(c3cnccn3)CC1)C1CCCC21 (centres unmarked) [Example 3, Hexahydro-3-[4-[4-(2-pyrazinyl)-1-piperazinyl]butyl]-1,5-methanocyclopent[d]azepine-2,4(1H,3H)-dione] | 23 | 41 |  |  | ~80 |  | 4.91 |  | inactive | 30.9 |  |  | 
3 | O=C1C2CC(C(=O)N1CCCCN1CCN(c3ncccn3)CC1)C1CC=CC21 (centres unmarked) [Example 4, 5,5a,8,8a-Tetrahydro-3-[4-[4-(2-pyrimidinyl)-1-piperazinyl]butyl]1,5-methanocyclopent[d]azepine-2,4(1H,3H)-dione] | 59 | 3.5 |  |  | ~80 |  | 5.5 | inactive | weak |  |  |  | 
4 | O=C1C2CC(C(=O)N1CCCCN1CCN(c3cncc(Cl)n3)CC1)C1CC=CC21 (centres unmarked) [Example 5, 5,5a,8,8a-Tetrahydro-3-[4-[4-(6-chloro-2-pyrazinyl)-1-piperazinyl]butyl]-1,5-methanocyclopent[d]azepine-2,4(1H,3H)-dione] | 25 | 60 |  |  | > 20 |  | 47.2 | inactive | active |  |  |  | 
5 | O=C1C2CC(C(=O)N1CCCCN1CCN(c3cncc(Cl)n3)CC1)C1C2C2C3CC4C2C4C31 (centres unmarked) [Example 7, Decahydro-3-[4-[4-(6-chloro-2-pyrazinyl)-1-piperazinyl]butyl]-1,5-methano-6,7,9-metheno-2H-pentaleno[1,2-d]azepine-2,4(3H)-dione] | 54 | 6.95 |  |  | > 20 |  |  | inactive | inactive |  | inactive |  | 
6 | O=C1C2CC(C(=O)N1CCCCN1CCN(c3cnccn3)CC1)C1C2C2C3CC4C2C4C31 (centres unmarked) [Example 13, Decahydro-3-[4-[4-(2-pyrazinyl)-1-piperazinyl]butyl]-1,5-methano-6,7,9-metheno-2H-pentaleno[1,2-d]azepine-2,4(3H)-dione] | 51 | 4 |  |  | ~80 | 40.2 | 5.44 |  |  | 32.3 |  |  | 
7 | O=C1C2CC(C(=O)N1CCCCN1CCN(c3ccc4ccccc4n3)CC1)C1C2C2C3CC4C2C4C31 (centres unmarked) [Example 14, Decahydro-3-[4-[4-(2-quinolyl)-1-piperazinyl]butyl]-1,5-methano-6,7,9-methano-2H-pentaleno[1,2-d]azepine-2,4(3H)-dione] | 45 |  |  | 86 | ~20 |  | 44 | inactive |  |  |  |  | 
8 | O=C1CC2(CCCC2)CC(=O)N1CCCCN1CCN(c2ncccn2)CC1 [buspirone, reference compound] |  |  |  |  |  |  |  |  |  |  |  | potent affinity | 
9 | CN(C)CCCN1c2ccccc2Sc2ccc(Cl)cc21 [chlorpromazine, reference compound] |  |  |  |  |  |  |  |  |  |  |  |  | 1.51
10 | O=C(CCCN1CCC(O)(c2ccc(Cl)cc2)CC1)c1ccc(F)cc1 [haloperidol, reference compound] |  |  |  |  |  |  |  |  |  |  |  |  | 1.00

Now from value to compound, other results behind:

Row | inhibition at 1 µM (D-2 dopamine receptor) [%] | Ki [4] [nM] | Ki (D-2 dopamine receptor) [nM] | inhibition at 1 µM [4] [%] | SMILES | inhibition in vivo at 40 mg/kg [1] [%] | ED50 [2] [mg/kg] | ED50 [3, 5] [mg/kg] | Apomorphine antagonism ED50, stereotypy [3] | Conditioned avoidance, discrete trial AB50 (Avoidance Block) [2] | ED50 [3, 6] [mg/kg] | Apomorphine antagonism ED50, climbing [3] | Affinity for 5-HT1A serotonin receptor (in words) ([4]; [3H] 8-OH DPAT displacement) | Ratio of the ED50 for stereotyped behavior to the ED50 for climbing [3]
11 | 20 | 31 |  |  | O=C1C2CC(C(=O)N1CCCCN1CCN(c3cncc(Cl)n3)CC1)C1CCCC21 (centres unmarked) [Example 2, Hexahydro-3-[4-[4-(6-chloro-2-pyrazinyl)-1-piperazinyl]butyl]-1,5-methanocyclopent[d]azepine-2,4(1H,3H)-dione] | > 20 |  | 24.2 | inactive | inactive |  |  |  | 
12 |  | 0.23 | 56 |  | O=C1C2CC(C(=O)N1CCCCN1CCN(c3ncccn3)CC1)C1C2C2C3CC4C2C4C31 (centres unmarked) [Example 6, Decahydro-3-[4-[4-(2-pyrimidinyl)-1-piperazinyl]butyl]-1,5-methano-6,7,9-metheno-2H-pentaleno[1,2-d]azepine-2,4(3H)-dione] | ~80 | 33.8 | 0.4 | inactive |  |  |  |  | 
13 | 23 |  |  | 89 | O=C1C2CC(C(=O)N1CCCCN1CCN(c3ncccn3)CC1)c1ccccc12 [Example 8, 2,3,4,5-Tetrahydro-3-[4-[4-(2-pyrimidinyl)-1-piperazinyl]butyl]-1,5-methano-1H-3-benzazepine-2,4(3H, 5H)-dione] | > 20 |  |  | inactive | inactive |  | inactive |  | 
14 | 0 |  |  | 61 | O=C1C2CC(C(=O)N1CCCCN1CCN(c3cncc(Cl)n3)CC1)c1ccccc12 [Example 9, 2,3,4,5-Tetrahydro-3-[4-[4-(6-chloro-2-pyrazinyl)-1-piperazinyl]butyl]-1,5-methano-1H-3-benzazepine-2,4(3H, 5H)-dione] | > 20 |  |  | inactive |  |  |  |  | 
15 |  | 0.29 | 18 |  | COc1ccccc1N1CCN(CCCCN2C(=O)C3CC(C2=O)C2C3C3C4CC5C3C5C42)CC1 (centres unmarked) [Example 10, Decahydro-3-[4-[4-(2-methoxyphenyl)-1-piperazinyl]butyl]-1,5-methano-6,7,9-metheno-2H-pentaleno[1,2-d]azepine-2,4(3H)-dione] | > 20 |  | 4.71 |  | inactive | 10 |  |  | 
16 | 100 | 2 |  |  | O=C1C2CC(C(=O)N1CCCCN1CCN(c3cccc(C(F)(F)F)c3)CC1)C1CCCC21 (centres unmarked) [Example 11, Hexahydro-3-[4-[4-(3-trifluoromethylphenyl)-1-piperazinyl]butyl]-1,5-methano-cyclopent[d]azepine-2,4(1H, 3H)-dione] | > 20 | 46.2 | 18.9 |  |  | 42.4 |  |  | 
17 |  | 0.2 | 30 |  | O=C1C2CC(C(=O)N1CCCCN1CCN(c3cccc(C(F)(F)F)c3)CC1)C1C2C2C3CC4C2C4C31 (centres unmarked) [Example 12, Decahydro-3-[4-[4-(3-trifluoromethylphenyl)-1-piperazinyl]butyl]-1,5-methano-6,7,9-metheno-2H-pentaleno[1,2-d]azepine-2,4(3H)-dione] | < 20 |  |  | inactive |  |  | inactive |  | 
18 |  | 0.5 | 174 |  | O=C1C2CC(C(=O)N1CCCCN1CCN(c3ncccn3)CC1)C1C3CCC(C3)C21 (centres unmarked) [Example 15, Octahydro-3-[4-[4-(2-pyrimidinyl)-1-piperazinyl]butyl]-2H-1,5:6,9-dimethano-2H-3-benzazepine-2,4(3H)-dione] | > 20 |  | 14.3 |  | inactive | 2.54 |  |  | 
